{"source": "patent US20230202981A1", "about": "“NOVEL SMALL MOLECULES FOR TARGETED DEGRADATION OF UNTARGETABLE KRAS IN CANCER THERAPY” (Pillai Universal LLC, priority 2020, published 2023)", "key": {"[1]": {"tested_on": "GTP-KRAS in KRAS G12C, G12V, G12D, and G13D mutant cells", "assay": "RAS activation assay, formation of GTP-bound KRAS in mutant cells", "format": "cell-based", "conditions": "24 h", "description": "Actually, mutant KRAS would interfere the balance between GEFs and GAPs, resulting in locking in the active GTP-bound KRAS state and aberrant stimulation of its downstream signaling."}, "[2]": {"tested_on": "KRAS G12C mutant cell lines", "assay": "Cytotoxic effect on NCI-Panel of 10 KRAS G12C mutant cell lines", "format": "cell-based"}, "[3]": {"tested_on": "RAS", "assay": "Effect on RAS degradation (GSK3β, Wnt/β-catenin pathway proteins)", "format": "cell-based"}, "[4]": {"target": "KRAS (Homo sapiens, UniProt P01116)", "sequence (P01116 1-188 isoform P01116-2)": "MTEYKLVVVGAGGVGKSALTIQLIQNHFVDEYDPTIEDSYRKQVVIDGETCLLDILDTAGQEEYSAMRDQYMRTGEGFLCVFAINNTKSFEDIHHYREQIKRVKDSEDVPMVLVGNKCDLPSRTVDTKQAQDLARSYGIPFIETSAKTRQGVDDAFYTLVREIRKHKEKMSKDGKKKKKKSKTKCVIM", "assay": "Binding to KRAS in vitro", "description": "The present invention is aimed to invent powerful, therapeutic small molecules that could target mutant KRAS on its active sites. Here we identified a small molecule, compound I, that binds the GTP/GDP-binding pocket of KRAS. For this purpose we studied a strong correlation of measurement among a larger panel of tumor cell lines expressing KRAS mutation and analyses the potency to inhibit the tumor cell growth activated RAS. […] Therefore, compound I may be considered as a potential KRAS inhibitor for treatment of cancer cells carrying KRAS oncogene.\nFrom the above biological examples it is clearly inferred that the Compound 1 as a new class of KRAS that selectively targets the GTP/GDP binding pocket. […] Compound 1 to 5-induced hyperactivation of mutant KRAS facilitates apoptotic cell death in mutant KRAS cancer cells. Combining the results with detailed structural analysis, we are able to describe key ligand-receptor interactions that correlate with activity. Thus, showing that our screening techniques were very successful at generating KRAS binders that have effects on signaling in cells. […] Therefore, compound Compound 1 is a promising hit for the development of novel non-covalent KRAS inhibitors. The development of this new class of anticancer drug offers a potentially effective strategy for the treatment of cancer with KRAS mutation and/or mutant KRAS-driven cancer. […]"}, "[5]": {"assay": "Oral bioavailability", "format": "in vivo"}, "[6]": {"tested_on": "BT-474", "assay": "IC50 of Compound 1 on breast cells (MTT assay)", "format": "cell-based", "conditions": "Homo sapiens; BT-474 cells", "description": "(§1) The activity of Compound 1 on various mutated EGFRs, HER2, and HER4 were examined. MTT assays, flow cytometry, and Western blotting were used to examine the effects of Compound 1 on with different genetic characteristics and relevant molecular mechanisms. Nude mouse xenograft models with cells were used to evaluate the in vim anti-tumor activity of Compound 1. […] Compound 1 blocked EGFR phosphorylation, thereby down regulating downstream PI3/AKT and MAPK/ERK signaling pathways and inducing G0/G1 arrest in different cells. […] Due to compromised homologous recombination (HR) repair, BRCA 1-and BRCA 2-mutated tumours accumulate DNA damage and genomic rearrangements conducive of tumour progression."}, "[7]": {"tested_on": "MCF-10A", "assay": "IC50 of Compound 1 on breast cells (MTT assay)", "format": "cell-based", "conditions": "Homo sapiens; MCF-10A cells", "description": "as §1"}, "[8]": {"tested_on": "MDA-MB-231", "assay": "IC50 of Compound 1 on breast cells (MTT assay)", "format": "cell-based", "conditions": "Homo sapiens; MDA-MB-231 cells", "description": "as §1"}, "[9]": {"tested_on": "T-47D", "assay": "IC50 of Compound 1 on breast cells (MTT assay)", "format": "cell-based", "conditions": "Homo sapiens, T47D; T-47D cells", "description": "as §1"}, "[10]": {"tested_on": "MDA-MB-453", "assay": "IC50 of Compound 1 on breast cells (MTT assay)", "format": "cell-based", "conditions": "Homo sapiens; MDA-MB-453 cells", "description": "as §1"}, "[11]": {"tested_on": "BT-549", "assay": "IC50 of Compound 1 on breast cells (MTT assay)", "format": "cell-based", "conditions": "Homo sapiens; BT-549 cells", "description": "as §1"}, "[12]": {"tested_on": "HCC1937", "assay": "IC50 of Compound 1 on breast cells (MTT assay)", "format": "cell-based", "conditions": "Homo sapiens", "description": "as §1"}, "[13]": {"tested_on": "ZR-75-1", "assay": "IC50 of Compound 1 on breast cells (MTT assay)", "format": "cell-based", "conditions": "Homo sapiens; ZR-75-1 cells", "description": "as §1"}, "[14]": {"tested_on": "MCF-7", "assay": "IC50 of Compound 1 on breast cells (MTT assay)", "format": "cell-based", "conditions": "Homo sapiens, MCF7; MCF-7 cells", "description": "as §1"}, "[15]": {"tested_on": "MDA-MB-468", "assay": "IC50 of Compound 1 on breast cells (MTT assay)", "format": "cell-based", "conditions": "Homo sapiens; MDA-MB-468 cells", "description": "as §1"}, "[16]": {"target": "wild-type (WT) HER2 (Homo sapiens, UniProt P04626)", "sequence (P04626 23-1255)": "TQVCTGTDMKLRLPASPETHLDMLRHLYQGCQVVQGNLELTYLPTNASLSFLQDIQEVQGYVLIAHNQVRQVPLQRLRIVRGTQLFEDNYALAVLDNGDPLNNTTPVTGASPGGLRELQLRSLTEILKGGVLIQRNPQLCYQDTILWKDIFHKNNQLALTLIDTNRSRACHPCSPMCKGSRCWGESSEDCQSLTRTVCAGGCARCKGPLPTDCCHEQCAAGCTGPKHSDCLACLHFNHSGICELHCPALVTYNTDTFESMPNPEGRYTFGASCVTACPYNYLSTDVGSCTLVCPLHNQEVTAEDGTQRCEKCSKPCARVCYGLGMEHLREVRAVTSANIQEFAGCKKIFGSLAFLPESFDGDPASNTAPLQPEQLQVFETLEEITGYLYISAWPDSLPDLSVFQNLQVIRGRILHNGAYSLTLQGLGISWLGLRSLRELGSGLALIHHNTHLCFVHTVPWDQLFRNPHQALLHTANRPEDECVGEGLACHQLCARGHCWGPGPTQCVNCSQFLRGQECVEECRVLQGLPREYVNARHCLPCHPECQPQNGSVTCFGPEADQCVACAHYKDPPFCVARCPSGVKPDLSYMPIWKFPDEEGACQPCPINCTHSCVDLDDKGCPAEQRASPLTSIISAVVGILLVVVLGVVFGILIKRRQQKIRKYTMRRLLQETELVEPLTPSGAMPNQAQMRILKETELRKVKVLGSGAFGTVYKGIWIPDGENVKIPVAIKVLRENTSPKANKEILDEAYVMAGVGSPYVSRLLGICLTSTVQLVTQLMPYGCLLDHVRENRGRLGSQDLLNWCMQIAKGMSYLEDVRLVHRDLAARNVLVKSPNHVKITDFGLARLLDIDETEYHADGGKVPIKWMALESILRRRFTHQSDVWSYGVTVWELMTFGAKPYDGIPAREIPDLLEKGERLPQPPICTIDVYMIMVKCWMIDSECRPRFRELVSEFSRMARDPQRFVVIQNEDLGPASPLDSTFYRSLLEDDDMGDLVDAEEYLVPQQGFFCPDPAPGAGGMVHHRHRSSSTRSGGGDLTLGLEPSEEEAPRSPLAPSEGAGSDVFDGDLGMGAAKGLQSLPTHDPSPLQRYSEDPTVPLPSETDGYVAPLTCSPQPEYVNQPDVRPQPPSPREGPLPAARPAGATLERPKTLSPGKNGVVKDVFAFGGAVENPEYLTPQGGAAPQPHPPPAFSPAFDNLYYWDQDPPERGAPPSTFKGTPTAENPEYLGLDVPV", "assay": "Enzyme activity of EGFR family members", "format": "biochemical", "description": "as §1"}, "[17]": {"tested_on": "drug-sensitive EGFR mutations, and EGFR C797S mutations", "assay": "Enzyme activity of EGFR family members", "format": "biochemical", "description": "as §1"}, "[18]": {"tested_on": "KRAS-driven lung tumor", "assay": "Tumor growth in xenograft model", "format": "in vivo", "procedure": "The in vivo efficacy of Compound 1 in the context of mutant KRAS was next assessed. Cells were injected into nude mice, and the tumors were allowed to grow to about 60 mm^3 in size and treated daily with Compound 1 for 14-21 days. […] At the day of harvest, the net tumor mass was determined and the average tumor weight of the Compound 1 treatment group was 89% less than the average tumor weight of the control group. […] The effect of Compound 1 treatment were further examined on KRAS-mediated RAF, MEK/ERK, and PI3K/AKT cascades in protein extracts derived from vehicle- and Compound 1-treated tumors."}, "[19]": {"tested_on": "mutant-KRAS-driven cancer", "assay": "In vivo tumor model (PDTX animal model)", "design": "species or system mice", "description": "FIG. 18 depicts regression of all mutant-KRAS-driven cancer in PDTX Animal Model.\nCompound 1 was also found to inhibit downstream signaling."}}, "note": "Where two headings read alike, the source gives them in different places.", "data": [{"smiles": "CCCCc1ncc(C(=O)C2CC=C(C(N)=O)N2)cc1C(=O)OCC", "note": "(centres unmarked) [Compound 1]", "values": [{"measurement": "formation of GTP-KRAS relative to the total amount of KRAS", "setting": "[1]", "value": "selectively inhibit the formation of GTP-KRAS"}, {"measurement": "number of cancer cells compared against AMG510 and MRTX849", "setting": "[2]", "value": "significant reduction in the number of cancer cells"}, {"measurement": "Axin level", "setting": "[3]; control 0.25 ± 0.05", "value": "1.96 ± 0.02"}, {"measurement": "APC level", "setting": "[3]; control 0.63 ± 0.03", "value": "0.96 ± 0.44"}, {"measurement": "GSk3β level", "setting": "[3]; control 0.69 ± 0.02", "value": "1.89 ± 0.23"}, {"measurement": "Beta Catenin level", "setting": "[3]; control 1.32 ± 0.09", "value": "0.66 ± 0.09"}, {"measurement": "RAS level", "setting": "[3]; control 1.96 ± 0.06", "value": "0.25 ± 0.03"}, {"measurement": "RAS degradation", "setting": "[3]; via GSK3β phosphorylation", "value": "degrades the RAS"}, {"measurement": "binding affinity to KRAS", "setting": "[4]", "value": "nanomolar binder"}, {"measurement": "binding affinity to KRAS", "setting": "[4]; listed as Compound I", "value": "good binding affinity"}, {"measurement": "F (Bioavailability)", "setting": "[5]", "value": "F-92% (Bioavailability)"}, {"measurement": "IC50", "setting": "[6]", "value": "4.45 ± 0.1", "unit": "µM"}, {"measurement": "IC50", "setting": "[7]", "value": "106 ± 3.14", "unit": "µM"}, {"measurement": "IC50", "setting": "[8]", "value": "4.89 ± 0.37", "unit": "µM"}, {"measurement": "IC50", "setting": "[9]", "value": "5.19 ± 0.28", "unit": "µM"}, {"measurement": "IC50", "setting": "[10]", "value": "3.65 ± 0.44", "unit": "µM"}, {"measurement": "IC50", "setting": "[11]", "value": "3.24 ± 0.08", "unit": "µM"}, {"measurement": "IC50", "setting": "[12]", "value": "7.52 ± 1.26", "unit": "µM"}, {"measurement": "IC50", "setting": "[13]", "value": "1.69 ± 0.14", "unit": "µM"}, {"measurement": "IC50", "setting": "[14]", "value": "2.98 ± 0.6", "unit": "µM"}, {"measurement": "IC50", "setting": "[15]", "value": "4.21 ± 0.3", "unit": "µM"}, {"measurement": "enzyme activity of HER2", "setting": "[16]", "value": "effectively inhibited the enzyme activity"}, {"measurement": "enzyme activity of mutated EGFR", "setting": "[17]", "value": "effectively inhibited the enzyme activity"}, {"measurement": "apoptotic cells by cleaved caspase-3 staining in tumors", "setting": "[18]; immunohistochemistry", "value": "prominent increase of apoptotic cells"}, {"measurement": "cell proliferation by Ki-67 staining in tumors", "setting": "[18]; immunohistochemistry", "value": "large reduction in cell proliferation"}, {"measurement": "body weight loss or apparent toxicity", "setting": "[18]; nude mice (n=6) after treatment", "value": "no significant body weight loss or apparent toxicity"}, {"measurement": "tumor growth suppression compared to vehicle treated controls", "setting": "[18]; nude mice xenograft, suppression starting at day 9", "value": "significant suppression from day 10 to day 14"}, {"measurement": "average tumor weight less than the control group", "setting": "[18]; nude mice, treated daily for 14-21 days, day of harvest", "value": 89, "unit": "%"}, {"measurement": "CRAF, ERK, and AKT phosphorylation in tumor protein extracts", "setting": "[18]; treated vs vehicle tumors", "value": "significant suppression"}, {"measurement": "tumor growth suppression", "setting": "[19]; all mutant-KRAS-expressing animal models, started at day 9", "value": "significant suppression from day 10-14"}, {"measurement": "relapse", "setting": "[19]; for 6-8 months", "value": "no evidence of relapse"}, {"measurement": "reduction in tumor growth", "setting": "[19]; within 28 days", "value": 95, "unit": "%"}]}]}
